Data set [1] concerns Candida albicans. Put plainly: Antifungal activity against Candida albicans ATCC 10231 assessed as diameter of inhibition zone after 24 hrs by agar well diffusion method. Format: functional.
Data set [2] deals with B16. Put plainly: Induction of melanin synthesis in mouse B16 cells assessed as increase in melanin content at 50 uM after 48 hrs measured by spectrophotometric method relative to control. In kind it is functional.
The test system of data set [3] is Escherichia coli. Put plainly: Antibacterial activity against Escherichia coli ATCC 11229 assessed as diameter of inhibition zone after 24 hrs by agar well diffusion method. Format: functional.
Data set [4] relates to Staphylococcus aureus. Description: Antibacterial activity against Staphylococcus aureus ATCC 6538 assessed as diameter of inhibition zone after 24 hrs by agar well diffusion method. In kind it is functional.
Data set [5] concerns B16. Put plainly: Cytotoxicity against mouse B16 cells at 50 uM after 24 hrs by CCK8 assay. In kind it is cell-based. The settings on record: b16, 24 h.
For data set [6], the system named is B16. Put plainly: Potency index, ratio of compound activity to 8-MOP activity for induction of melanin synthesis in mouse B16 cells. Format: functional.

As to `Cc1cc(=O)oc2cc(OCc3cc(-c4cc(F)cc(F)c4)no3)ccc12`, the results for the “diameter of the inhibition zone (DIZ)” value in data set [1], in data set [3] and in data set [4] were 10 mm, “<=7 mm” and “<=7 mm”, respectively. The Activity in data set [2] is given as 176.55%.

With `Cc1cc(=O)oc2cc(OCc3cc(-c4cc(Cl)cc(Cl)c4)no3)ccc12`, the entries for the “diameter of the inhibition zone (DIZ)” value in data set [1], in data set [3] and in data set [4] were 10 mm, “<=7 mm” and “<=7 mm”, respectively. For the same molecule, the Activity entry in data set [5] is given as “Toxic”; in data set [2], 389.95%. The Ratio in data set [6] turned out to be 2.6.

Regarding `Cc1cc(=O)oc2cc(O)ccc12` [HYMECROMONE], the “diameter of the inhibition zone (DIZ)” value is listed as 7 mm in data set [1], “<=7 mm” in data set [3] and “<=7 mm” in data set [4]. Also, the Activity in data set [2] is on record as 112.2%.

Regarding `Cc1cc(=O)oc2cc(OCc3cc(-c4ccccc4)no3)ccc12`, the “diameter of the inhibition zone (DIZ)” value in data set [1], in data set [3] and in data set [4] was “<=7 mm” in each case. Moreover, the Activity in data set [2] is reported as 153.35%.

For `COc1ccccc1-c1cc(COc2ccc3c(C)cc(=O)oc3c2)on1`, the “diameter of the inhibition zone (DIZ)” value in data set [1], in data set [3] and in data set [4] was “<=7 mm” throughout. Besides, the Activity in data set [2] stood at 145.05%.

As to `Cc1cc(=O)oc2cc(OCc3cc(-c4ccc5c(c4)OCCO5)no3)ccc12`, the “diameter of the inhibition zone (DIZ)” value in data set [1], in data set [3] and in data set [4] was “<=7 mm” throughout. Further, the Activity in data set [2] came to 178.33%.

As for `C[C@@H]1[C@H](O)[C@@H](C)/C=C/C=C/C=C/C=C/C=C/C=C/C=C/[C@H](O[C@@H]2O[C@H](C)[C@@H](O)[C@H](N)[C@@H]2O)C[C@@H]2O[C@](O)(C[C@@H](O)C[C@@H](O)[C@H](O)CC[C@@H](O)C[C@@H](O)CC(=O)O[C@H]1C)C[C@H](O)[C@H]2C(=O)O` [AMPHOTERICIN B], the “diameter of the inhibition zone (DIZ)” value is recorded as 11 mm in data set [1], “<=7 mm” in data set [3] and “<=7 mm” in data set [4].

On to `Cc1cc(=O)oc2cc(OCc3cc(-c4cccc(F)c4)no3)ccc12`, for which the “diameter of the inhibition zone (DIZ)” value in data set [1] is 7 mm; in data set [3], “<=7 mm”; in data set [4], “<=7 mm”. For the same molecule, in data set [2], the Activity is 121.15%.

With `Cc1cc(=O)oc2cc(OCc3cc(-c4ccc(Cl)c(Cl)c4)no3)ccc12`, the “diameter of the inhibition zone (DIZ)” value was 10 mm in data set [1], “<=7 mm” in data set [3] and “<=7 mm” in data set [4]. The Activity entry in data set [5] is reported as “Toxic”; in data set [2] it was 204.12%.

As for `COc1c2occc2cc2ccc(=O)oc12` [METHOXSALEN], the “diameter of the inhibition zone (DIZ)” value in data set [1], in data set [3] and in data set [4] was “<=7 mm” in each case. Further, the Activity in data set [2] was 149.39%.

On to `Cc1cc(=O)oc2cc(OCc3cc(-c4ccc(F)cc4)no3)ccc12`, for which the “diameter of the inhibition zone (DIZ)” value in data set [1], in data set [3] and in data set [4] was “<=7 mm” each time. The Activity in data set [2] came out at 115.44%.

`Cc1cc(=O)oc2cc(OCc3cc(-c4cccc(OC(F)(F)F)c4)no3)ccc12`: the “diameter of the inhibition zone (DIZ)” value in data set [1], in data set [3] and in data set [4] was “<=7 mm” each time. Moreover, the Activity result in data set [5] is given as “Toxic”; in data set [2], 203.27%.

Consider `Cc1cc(=O)oc2cc(OCc3cc(-c4cc(I)ccc4F)no3)ccc12`, for which the “diameter of the inhibition zone (DIZ)” value in data set [1], in data set [3] and in data set [4] was “<=7 mm” throughout. In data set [2], the Activity stood at 169.71%.

`COc1ccc(-c2cc(COc3ccc4c(C)cc(=O)oc4c3)on2)cc1`: the “diameter of the inhibition zone (DIZ)” value in data set [1], in data set [3] and in data set [4] was “<=7 mm” throughout. Further, the Activity in data set [2] amounted to 129.45%.

On to `Cc1cc(=O)oc2cc(OCc3cc(-c4ccc(F)c(F)c4)no3)ccc12`, for which the “diameter of the inhibition zone (DIZ)” value is recorded as 10 mm in data set [1], “<=7 mm” in data set [3] and “<=7 mm” in data set [4]. Also, the Activity in data set [2] worked out at 156.64%.

As for `CC1(C)S[C@@H]2[C@H](NC(=O)[C@H](N)c3ccccc3)C(=O)N2[C@H]1C(=O)O` [AMPICILLIN], the “diameter of the inhibition zone (DIZ)” value in data set [1] is reported as “<=7 mm”; in data set [4], 19 mm.

For the molecule `Cc1cc(=O)oc2cc(OCc3cc(-c4ccc(Cl)cc4)no3)ccc12`, the “diameter of the inhibition zone (DIZ)” value in data set [1], in data set [3] and in data set [4] was “<=7 mm” in each case. Moreover, the Activity in data set [2] worked out at 191.96%.

For `Cc1cc(=O)oc2cc(OCc3cc(-c4cccc(Cl)c4)no3)ccc12`, the “diameter of the inhibition zone (DIZ)” value in data set [1] is reported as 7 mm; in data set [3] it was “<=7 mm”; in data set [4] it was “<=7 mm”. In addition, the Activity entry in data set [5] is on record as “Toxic”; in data set [2], 242.18%. Moreover, the Ratio in data set [6] was found to be 1.6.

For the molecule `Cc1cc(=O)oc2cc(OCc3cc(-c4ccc(Cl)c(F)c4)no3)ccc12`, the “diameter of the inhibition zone (DIZ)” value in data set [1] is reported as 7 mm; in data set [3], “<=7 mm”; in data set [4], “<=7 mm”. Besides, in data set [2], the Activity came out at 182.27%.

(Values after ChEMBL document CHEMBL4020751, “Synthesis and in vitro biological evaluation of novel coumarin derivatives containing isoxazole moieties on melanin synthesis in B16 cells and inhibition on bacteria” (Bioorg Med Chem Lett, 2017).)
